Values joined by “and” are separate entries in the source; they are usually repeats but may differ in a detail not shown here. Equal values may be shown once. Inconclusive results and toxic doses are left out.
Test system: CD2F1 mice, L1210 leukemia ip, survival T/C
Assay: NCI In Vivo Anticancer Drug Screen. Data for tumor model L1210 Leukemia (intraperitoneal) in CD2F1 (CDF1) mice
Conditions: higher = longer survival
In short: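 Transplantable tumor in mice; compound-treated vs vehicle-treated groups. Read-out = treated/control ratio of the measured endpoint.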

[1] = endpoint: mean survival time, dose: 100.0 mg/kg/injection, schedule: Q01DX009 (ip), vehicle: saline
[2] = endpoint: mean survival time, dose: 200.0 mg/kg/injection, schedule: Q01DX009 (ip), vehicle: saline
[3] = endpoint: mean survival time, dose: 400.0 mg/kg/injection, schedule: Q01DX009 (ip), vehicle: saline
[4] = endpoint: mean survival time, dose: 100.0 mg/kg/injection, schedule: Q01DX009 (ip), vehicle: saline with Tween-80
[5] = endpoint: mean survival time, dose: 100.0 mg/kg/injection, schedule: Q04DX003 (ip), vehicle: saline with Tween-80
[6] = endpoint: mean survival time, dose: 200.0 mg/kg/injection, schedule: Q01DX009 (ip), vehicle: saline with Tween-80
[7] = endpoint: mean survival time, dose: 200.0 mg/kg/injection, schedule: Q04DX003 (ip), vehicle: saline with Tween-80
[8] = endpoint: mean survival time, dose: 400.0 mg/kg/injection, schedule: Q01DX009 (ip), vehicle: saline with Tween-80
[9] = endpoint: mean survival time, dose: 400.0 mg/kg/injection, schedule: Q04DX003 (ip), vehicle: saline with Tween-80
[10] = endpoint: mean survival time, dose: 100.0 mg/kg/injection, schedule: Q01DX001 (ip), vehicle: saline with Tween-80
[11] = endpoint: mean survival time, dose: 200.0 mg/kg/injection, schedule: Q01DX001 (ip), vehicle: saline with Tween-80
[12] = endpoint: mean survival time, dose: 6.25 mg/kg/injection, schedule: Q01DX009 (ip), vehicle: saline with Tween-80
[13] = endpoint: mean survival time, dose: 12.5 mg/kg/injection, schedule: Q01DX009 (ip), vehicle: saline with Tween-80
[14] = endpoint: mean survival time, dose: 25.0 mg/kg/injection, schedule: Q01DX009 (ip), vehicle: saline with Tween-80
[15] = endpoint: mean survival time, dose: 25.0 mg/kg/injection, schedule: Q04DX002 (ip), vehicle: saline
[16] = endpoint: mean survival time, dose: 100.0 mg/kg/injection, schedule: Q04DX002 (ip), vehicle: saline
[17] = endpoint: mean survival time, dose: 50.0 mg/kg/injection, schedule: Q01DX001 (ip), vehicle: carboxymethylcellulose (CMC)
[18] = endpoint: mean survival time, dose: 100.0 mg/kg/injection, schedule: Q01DX001 (ip), vehicle: carboxymethylcellulose (CMC)
[19] = endpoint: mean survival time, dose: 200.0 mg/kg/injection, schedule: Q01DX001 (ip), vehicle: carboxymethylcellulose (CMC)

Structure (SMILES): CC(C)C(=O)C(C)(C)C(=O)N1CCCC1
- T/C [1]: 92 % of control
- T/C [2]: 103 % of control
- T/C [3]: 91 % of control

Structure (SMILES): C=CCC#N
- T/C (endpoint: mean survival time, dose: 100.0 mg/kg/injection, schedule: Q04DX003 (ip), vehicle: saline sonified): 90 % of control

Structure (SMILES): CCc1ccc(NC(=O)c2cccc(Cl)c2)cc1
- T/C [4]: 93 % of control
- T/C [5]: 95 % of control
- T/C [6]: 109 % of control
- T/C [7]: 98 % of control
- T/C [8]: 98 % of control
- T/C [9]: 98 % of control

Structure (SMILES): Nc1nc(SCc2ccc([N+](=O)[O-])cc2)c2[nH]cnc2n1
- T/C [4]: 94 % of control
- T/C [5]: 97 % of control
- T/C [6]: 101 % of control
- T/C [7]: 97 % of control
- T/C [8]: 95 % of control
- T/C [9]: 96 % of control

Structure (SMILES): Nc1nc(=O)n(CCCOc2ccccc2NC(=O)c2ccc(S(=O)(=O)F)cc2)cc1-c1ccc(Cl)c(Cl)c1
- T/C (endpoint: mean survival time, dose: 50.0 mg/kg/injection, schedule: Q01DX001 (ip), vehicle: saline with Tween-80): 96 % of control
- T/C [10]: 93 % of control
- T/C [11]: 93 % of control

Structure (SMILES): O=c1c(-c2ccccc2)c1-c1ccccc1
- T/C [5]: 93 % of control

Structure (SMILES): CC1(C)C2CCC1(CS(=O)(=O)O)C(=O)C2Br.[Ag] (stereo unspecified)
- T/C (endpoint: mean survival time, dose: 100.0 mg/kg/injection, schedule: Q04DX003 (ip), vehicle: acetone): 96 % of control

Structure (SMILES): Cc1ccc2c(c1)N=C(Nc1ccccc1)N=S2(C)=O (stereo unspecified)
- T/C [12]: 96 % of control and 104 % of control
- T/C [13]: 100 % of control and 107 % of control
- T/C [14]: 104 % of control
- T/C (endpoint: mean survival time, dose: 50.0 mg/kg/injection, schedule: Q01DX009 (ip), vehicle: saline with Tween-80): 90 % of control and 106 % of control
- T/C [4]: 101 % of control
- T/C [6]: 102 % of control

Structure (SMILES): COc1ccc([N+]2=Cc3cc(OC)c(OC)cc3CC2)cc1OC
- T/C (endpoint: mean survival time, dose: 12.5 mg/kg/injection, schedule: Q01DX009 (ip), vehicle: water): 89 % of control
- T/C (endpoint: mean survival time, dose: 25.0 mg/kg/injection, schedule: Q01DX009 (ip), vehicle: water): 94 % of control
- T/C (endpoint: mean survival time, dose: 50.0 mg/kg/injection, schedule: Q01DX009 (ip), vehicle: water): 97 % of control
- T/C (endpoint: mean survival time, dose: 100.0 mg/kg/injection, schedule: Q01DX009 (ip), vehicle: water): 91 % of control

Structure (SMILES): C=CC1CN2CCC1CC2C(O)c1ccnc2ccc(OC)cc12 (stereo unspecified)
- T/C (endpoint: mean survival time, dose: 18.75 mg/kg/injection, schedule: Q01DX009 (ip), vehicle: saline with Tween-80): 105 % of control
- T/C (endpoint: mean survival time, dose: 37.5 mg/kg/injection, schedule: Q01DX009 (ip), vehicle: saline with Tween-80): 101 % of control
- T/C (endpoint: mean survival time, dose: 75.0 mg/kg/injection, schedule: Q01DX009 (ip), vehicle: saline with Tween-80): 103 % of control

Structure (SMILES): O=C(/C(=N/N(C(=O)c1ccccc1)c1ccccc1)c1ccccc1)c1ccccc1
- T/C [5]: 102 % of control
- T/C [7]: 88 % of control
- T/C [9]: 95 % of control

Structure (SMILES): COP1(=O)OCC(C(C)(C)C)CO1 (stereo unspecified)
- T/C (endpoint: mean survival time, dose: 12.5 mg/kg/injection, schedule: Q04DX002 (ip), vehicle: saline): 103 % of control
- T/C [15]: 88 % of control

Structure (SMILES): NCCCOCCOCCOCCOCCCN
- T/C [15]: 105 % of control
- T/C (endpoint: mean survival time, dose: 50.0 mg/kg/injection, schedule: Q04DX002 (ip), vehicle: saline): 101 % of control
- T/C (endpoint: mean survival time, dose: 100.0 mg/kg/injection, schedule: Q01DX001 (ip), vehicle: saline sonified): 97 % of control
- T/C [16]: 101 % of control

Structure (SMILES): [Cl][Pt+2]([Cl])([Cl])[Cl].[NH-]CC1(C[NH-])CCCC1
- T/C (endpoint: median survival time, dose: 3.12 mg/kg/injection, schedule: Q04DX003 (ip), vehicle: saline): 171 % of control and 174 % of control
- T/C (endpoint: median survival time, dose: 6.25 mg/kg/injection, schedule: Q04DX003 (ip), vehicle: saline): 174 % of control and 217 % of control
- T/C (endpoint: median survival time, dose: 12.5 mg/kg/injection, schedule: Q04DX003 (ip), vehicle: saline): 280 % of control and 109 % of control
- T/C (endpoint: median survival time, dose: 25.0 mg/kg/injection, schedule: Q04DX003 (ip), vehicle: saline): 174 % of control

Structure (SMILES): O=c1[nH]c(=S)nc2nc[nH]n12
- T/C (endpoint: mean survival time, dose: 12.5 mg/kg/injection, schedule: Q01DX001 (ip), vehicle: carboxymethylcellulose (CMC)): 97 % of control
- T/C (endpoint: mean survival time, dose: 25.0 mg/kg/injection, schedule: Q01DX001 (ip), vehicle: carboxymethylcellulose (CMC)): 100 % of control
- T/C [17]: 104 % of control
- T/C [18]: 97 % of control
- T/C [19]: 97 % of control

Structure (SMILES): Cc1ccccc1C(C)NC1=NCCO1 (stereo unspecified)
- T/C [12]: 90 % of control
- T/C (endpoint: mean survival time, dose: 6.25 mg/kg/injection, schedule: Q04DX003 (ip), vehicle: saline with Tween-80): 96 % of control
- T/C [13]: 96 % of control
- T/C (endpoint: mean survival time, dose: 12.5 mg/kg/injection, schedule: Q04DX003 (ip), vehicle: saline with Tween-80): 95 % of control
- T/C [14]: 97 % of control
- T/C (endpoint: mean survival time, dose: 25.0 mg/kg/injection, schedule: Q04DX003 (ip), vehicle: saline with Tween-80): 93 % of control

Structure (SMILES): CCCCNC(C)C1(O)Cc2c(O)c3c(c(O)c2C(OC2CC(N)C(O)C(C)O2)C1)C(=O)c1c(OC)cccc1C3=O (stereo unspecified)
- T/C (endpoint: mean survival time, dose: 10.0 mg/kg/injection, schedule: Q01DX009 (ip), vehicle: water): 121 % of control
- T/C (endpoint: mean survival time, dose: 160.0 mg/kg/injection, schedule: Q01DX009 (ip), vehicle: water): 119 % of control

Structure (SMILES): NCCN1CCCC1
- T/C [16]: 96 % of control
- T/C (endpoint: mean survival time, dose: 200.0 mg/kg/injection, schedule: Q04DX002 (ip), vehicle: saline): 111 % of control
- T/C (endpoint: mean survival time, dose: 400.0 mg/kg/injection, schedule: Q04DX002 (ip), vehicle: saline): 103 % of control

Structure (SMILES): CC(C)c1nc(CCl)c(CCl)n1Cc1ccccc1
- T/C (endpoint: mean survival time, dose: 50.0 mg/kg/injection, schedule: Q01DX009 (ip), vehicle: Klucel (hydroxypropylcellulose) (HPC)): 97 % of control
- T/C (endpoint: mean survival time, dose: 100.0 mg/kg/injection, schedule: Q01DX009 (ip), vehicle: Klucel (hydroxypropylcellulose) (HPC)): 94 % of control
- T/C (endpoint: mean survival time, dose: 200.0 mg/kg/injection, schedule: Q01DX009 (ip), vehicle: Klucel (hydroxypropylcellulose) (HPC)): 90 % of control

Structure (SMILES): Nc1ccc2oc(=O)c(C(=O)O)cc2c1
- T/C [10]: 93 % of control
- T/C [11]: 89 % of control

Structure (SMILES): CCOC(=O)C(Cc1ccc(Cl)cc1)P(=O)(OCC)OCC (stereo unspecified)
- T/C (endpoint: mean survival time, dose: 100.0 mg/kg/injection, schedule: Q01DX001 (ip), vehicle: saline): 106 % of control
- T/C (endpoint: mean survival time, dose: 200.0 mg/kg/injection, schedule: Q01DX001 (ip), vehicle: saline): 101 % of control
- T/C (endpoint: mean survival time, dose: 400.0 mg/kg/injection, schedule: Q01DX001 (ip), vehicle: saline): 106 % of control

Structure (SMILES): CC(CC(C)C(=O)O)C(=O)O (stereo unspecified)
- T/C [4]: 100 % of control
- T/C [6]: 105 % of control

Structure (SMILES): CCC1(C)CCC2C(CCC3C(C)(C(=O)OC)CCCC23C)C12SCCS2 (stereo unspecified)
- T/C [10]: 86 % of control
- T/C [11]: 89 % of control
- T/C (endpoint: mean survival time, dose: 400.0 mg/kg/injection, schedule: Q01DX001 (ip), vehicle: saline with Tween-80): 96 % of control

Structure (SMILES): O=C(O)c1cccc(F)c1Cl
- T/C (endpoint: mean survival time, dose: 100.0 mg/kg/injection, schedule: Q04DX002 (ip), vehicle: saline with Tween-80): 95 % of control
- T/C (endpoint: mean survival time, dose: 200.0 mg/kg/injection, schedule: Q04DX002 (ip), vehicle: saline with Tween-80): 102 % of control

Structure (SMILES): O=[N+]([O-])c1cc(Cl)cc2c1-c1ccc(Cl)cc1C2Br (stereo unspecified)
- T/C [17]: 104 % of control
- T/C [18]: 98 % of control
- T/C [19]: 104 % of control
- T/C (endpoint: mean survival time, dose: 400.0 mg/kg/injection, schedule: Q01DX001 (ip), vehicle: carboxymethylcellulose (CMC)): 104 % of control

Structure (SMILES): NC(=O)Nc1ccccc1
- T/C [1]: 98 % of control
- T/C [2]: 98 % of control
- T/C [3]: 101 % of control

Structure (SMILES): CCN(Cc1cnc2nc(N)nc(N)c2n1)c1c(Cl)cc(C(=O)NC(CCC(=O)O)C(=O)O)cc1Cl (stereo unspecified)
- T/C (endpoint: mean survival time, dose: 3.12 mg/kg/injection, schedule: Q01DX009 (ip), vehicle: sodium bicarbonate): 117 % of control
- T/C (endpoint: mean survival time, dose: 6.25 mg/kg/injection, schedule: Q01DX009 (ip), vehicle: sodium bicarbonate): 117 % of control
- T/C (endpoint: mean survival time, dose: 100.0 mg/kg/injection, schedule: Q01DX009 (ip), vehicle: sodium bicarbonate): 170 % of control

Structure (SMILES): Cc1cc2ccc(OC(=O)c3ccc(N=C(N)N)cc3)cc2oc1=O
- T/C [4]: 91 % of control
- T/C [6]: 91 % of control
- T/C [8]: 86 % of control
